These results are taken from US10562898B2, “Substituted benzenesulfonamides as inhibitors of alpha-4 beta-7 integrin activity” (EA PHARMA CO., LTD., priority 2016, dated 2020).

The target in this experiment is T1, α4β7 integrin (Homo sapiens, UniProt P13612+P26010).
T1 construct: a cell line RPMI-8866, which is known to express α4β7 integrin; endogenous in cells; host or cells: RPMI-8866 (human B cell line)
T1 sequence (P13612 34-1032): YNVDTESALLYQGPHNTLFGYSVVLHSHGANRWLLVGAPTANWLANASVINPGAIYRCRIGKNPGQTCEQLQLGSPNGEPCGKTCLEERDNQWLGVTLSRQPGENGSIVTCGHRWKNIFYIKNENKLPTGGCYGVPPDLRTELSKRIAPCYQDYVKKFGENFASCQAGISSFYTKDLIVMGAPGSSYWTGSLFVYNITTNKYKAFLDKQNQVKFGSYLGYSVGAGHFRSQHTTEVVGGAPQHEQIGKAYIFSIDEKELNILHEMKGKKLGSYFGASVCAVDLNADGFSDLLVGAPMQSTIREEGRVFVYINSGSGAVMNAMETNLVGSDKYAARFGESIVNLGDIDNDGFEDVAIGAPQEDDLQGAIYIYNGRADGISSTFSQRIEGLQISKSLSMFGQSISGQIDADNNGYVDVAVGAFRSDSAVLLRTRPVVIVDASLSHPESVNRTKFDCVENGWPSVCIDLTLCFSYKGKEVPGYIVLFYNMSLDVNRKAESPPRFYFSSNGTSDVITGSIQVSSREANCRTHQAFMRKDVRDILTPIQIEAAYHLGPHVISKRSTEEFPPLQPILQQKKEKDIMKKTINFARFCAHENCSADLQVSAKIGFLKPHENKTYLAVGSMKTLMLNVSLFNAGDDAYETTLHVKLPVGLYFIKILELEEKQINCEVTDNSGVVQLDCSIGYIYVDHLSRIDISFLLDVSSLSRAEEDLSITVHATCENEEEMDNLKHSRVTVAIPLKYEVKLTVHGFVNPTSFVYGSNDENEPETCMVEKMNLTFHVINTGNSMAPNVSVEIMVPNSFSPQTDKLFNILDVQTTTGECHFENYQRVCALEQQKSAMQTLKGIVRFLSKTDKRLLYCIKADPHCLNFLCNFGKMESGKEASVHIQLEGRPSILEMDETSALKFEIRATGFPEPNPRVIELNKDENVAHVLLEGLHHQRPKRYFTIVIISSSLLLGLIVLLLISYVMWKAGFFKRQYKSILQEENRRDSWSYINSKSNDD
T1 sequence (P26010 20-798): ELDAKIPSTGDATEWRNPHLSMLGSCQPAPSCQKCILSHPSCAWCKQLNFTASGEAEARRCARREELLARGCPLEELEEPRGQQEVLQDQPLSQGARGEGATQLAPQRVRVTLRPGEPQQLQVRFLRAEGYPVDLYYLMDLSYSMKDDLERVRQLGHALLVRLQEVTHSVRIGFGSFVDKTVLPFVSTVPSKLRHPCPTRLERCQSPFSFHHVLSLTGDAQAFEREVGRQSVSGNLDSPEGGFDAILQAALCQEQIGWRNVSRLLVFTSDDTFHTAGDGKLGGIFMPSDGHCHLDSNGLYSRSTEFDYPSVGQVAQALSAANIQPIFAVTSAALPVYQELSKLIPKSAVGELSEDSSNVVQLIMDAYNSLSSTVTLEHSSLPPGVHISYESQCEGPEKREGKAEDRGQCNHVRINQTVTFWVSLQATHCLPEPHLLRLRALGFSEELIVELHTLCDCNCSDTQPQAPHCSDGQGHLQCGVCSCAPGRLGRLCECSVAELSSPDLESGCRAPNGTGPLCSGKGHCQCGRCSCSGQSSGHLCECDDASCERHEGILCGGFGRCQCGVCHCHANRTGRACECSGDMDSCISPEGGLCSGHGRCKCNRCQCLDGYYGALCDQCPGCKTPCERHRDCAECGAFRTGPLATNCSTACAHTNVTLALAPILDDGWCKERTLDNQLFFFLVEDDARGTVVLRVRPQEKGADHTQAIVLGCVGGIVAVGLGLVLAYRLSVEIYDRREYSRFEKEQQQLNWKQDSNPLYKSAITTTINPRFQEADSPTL
The experiment is described as follows: MAdCAM-1/α4β7 integrin binding inhibitory activity evaluation test in presence of serum. It counts as cell-based. To be noted: RPMI-8866 cells, recombinant mouse MAdCAM-1/Fc, 50% human serum; read-out: α4β7 Serum Added IC50. The procedure: (3) MAdCAM-1/α4β7 Integrin Binding Inhibitory Activity Evaluation Test in Presence of Serum (1)
Each test substance was measured in terms of an ability to inhibit the MAdCAM-1 binding of a human B cell line, namely, a cell line RPMI-8866, which is known to express α4β7 integrin.
A solution of recombinant mouse MAdCAM-1/Fc (R&D Systems, Inc.) (1 μg/mL) diluted with a buffer A (carbonate buffer, pH 9.6) was added in an amount of 50 μL/well to a 96-well microtiter plate, followed by incubation at 4° C. overnight. After the plate was washed with PBS once, 150 μL/well of Block Ace (Snow Brand Milk Products Co., Ltd.) was added, followed by incubation at room temperature for 2 hours. After removal, the plate was washed with PBS once.
Then, 100 μL of the RPMI-8866 cells (2×10^6 cells/mL) and 100 of the test substance at each of various concentrations diluted with a binding buffer (DMEM containing 40 mM HEPES, 0.2% BSA, and 4 mM MnCl2) were added to the plate coated with the MAdCAM-1/Fc (5×10^5 cells/well) such that 50% human serum was contained at the final concentration. Then, incubation was allowed to proceed at 30° C. for 15 to 60 minutes. After the cells were bound to the wells, the plate was washed with PBS to remove unbound cells. A buffer C (PBS containing 1.5% Triton X-100) was added in an amount 50 μL/well to the plate to lyse the bound RPMI-8866 cells. After 30 μL of a substrate buffer (Promega, CytoTox 96 Non-Radioactive Cytotoxicity Assay) was added to 30 μL of the cell lysate, a reaction was allowed to proceed at room temperature in the dark for 30 minutes. After 30 μL of a stop solution (Promega, CytoTox 96 Non-Radioactive Cytotoxicity Assay) was added to each, and then an absorbance at 490 nm was measured using a plate reader. The absorbance obtained here represents a detection result of an activity of lactate dehydrogenase (LDH) eluted in the supernatant of each well, that is, the absorbance is proportional to the number of RPMI-8866 cells bound to the MAdCAM-1 and thus remaining on the plate. The test was performed in duplicate. Provided that the absorbance of the well containing no test substance was 100%, a cell binding rate with the test substance at each of the various concentrations was figured out, and a concentration IC50 which brought about 50% binding inhibition was calculated.
For orientation: IC50 means the concentration needed to halve the response being measured. On to `Cn1c2c(c(=O)n(-c3ccc(C[C@H](NC(=O)c4cc(F)c(NS(=O)(=O)c5ccc(NC(=O)C(C)(C)C)cc5)cc4F)C(=O)O)cc3)c1=O)COCC2` [Compound A33], for which the IC50 is 1.7 nM.
With `Cn1c(=O)n(-c2ccc(C[C@H](NC(=O)c3cc(F)c(NS(=O)(=O)c4ccc(NC(=O)C(C)(C)C)c(F)c4)cc3F)C(=O)O)cc2)c(=O)c2ccncc21` [Compound A12] the figure was 61 nM; with `Cc1c(C)n(C)c(=O)n(-c2ccc(C[C@H](NC(=O)c3cc(F)c(NS(=O)(=O)c4ccc(NC(=O)C(C)(C)C)cn4)cc3F)C(=O)O)cc2)c1=O` [Compound A19], 4.6 nM; with `Cn1ccc(=O)n(-c2ccc(C[C@H](NC(=O)c3cc(F)c(NS(=O)(=O)c4ccc(NC(=O)C5(C(F)(F)F)CC5)cc4)cc3F)C(=O)O)cn2)c1=O` [Compound A55], 33 nM.
`Cn1ccc(=O)n(-c2ccc(C[C@H](NC(=O)c3cc(F)c(NS(=O)(=O)c4ccc(NC(=O)C(C)(C)C)cc4)cc3F)C(=O)O)nc2)c1=O` [Compound A70]: the IC50 is 33 nM.
With `Cc1c(C)n(C)c(=O)n(-c2ccc(C[C@H](NC(=O)c3cc(F)c(NS(=O)(=O)c4ccc(NC(=O)C5CCOCC5)cc4)cc3F)C(=O)O)cc2)c1=O` [Compound A15] the figure was 14 nM; with `Cc1c(C)n(C)c(=O)n(-c2ccc(C[C@H](NC(=O)c3cc(F)c(NS(=O)(=O)c4cccc(NC(=O)C(C)(C)C)c4)cc3F)C(=O)O)cc2)c1=O` [Compound A49], 45 nM; with `Cn1ccc(=O)n(-c2ccc(C[C@H](NC(=O)c3cc(F)c(NS(=O)(=O)c4ccc(NC(=O)C(C)(C)C)cc4)cc3F)C(=O)O)cn2)c1=O` [Compound A53], 11 nM.
The same measure for `Cn1c(=O)n(-c2ccc(C[C@H](NC(=O)c3cc(F)c(NS(=O)(=O)c4ccc(NC(=O)c5ccncc5)cc4)cc3F)C(=O)O)cc2)c(=O)c2ccncc21` [Compound A7]: 28 nM; for `Cn1c(=O)n(-c2ccc(C[C@H](NC(=O)c3cc(F)c(NS(=O)(=O)c4ccc(NC(=O)C5CCOCC5)cc4)cc3F)C(=O)O)cc2)c(=O)c2ccncc21` [Compound A14]: 12 nM; for `Cc1cn(C)c(=O)n(-c2ccc(C[C@H](NC(=O)c3cc(F)c(NS(=O)(=O)c4ccc(NC(=O)C(C)(C)CO)cc4)cc3F)C(=O)O)cn2)c1=O` [Compound A63]: 12 nM.
Consider `Cc1c(C)n(C(C)C)c(=O)n(-c2ccc(C[C@H](NC(=O)c3cc(F)c(NS(=O)(=O)c4ccc(NC(=O)C(C)(C)C)cc4)cc3F)C(=O)O)cc2)c1=O` [Compound A48], for which the IC50 was 22 nM.
With `Cc1c(C)n(C)c(=O)n(-c2ccc(C[C@H](NC(=O)c3cc(F)c(NS(=O)(=O)c4ccc(NC(=O)C(C)(C)C)cc4)cc3F)C(=O)O)cn2)c1=O` [Compound A28] the figure was 4.4 nM; with `Cn1ccc(=O)n(-c2ccc(C[C@H](NC(=O)c3cc(F)c(NS(=O)(=O)c4ccc(NC(=O)C(C)(C)C)cc4)cc3F)C(=O)O)cc2)c1=O` [Compound A42], 9.8 nM; with `Cc1cn(C)c(=O)n(-c2ccc(C[C@H](NC(=O)c3cc(F)c(NS(=O)(=O)c4ccc(NC(=O)C(C)C)cc4)cc3F)C(=O)O)cn2)c1=O` [Compound A71], 43 nM.
The same measure for `Cc1c(C)n(C)c(=O)n(-c2ccc(C[C@H](NC(=O)c3cc(F)c(NS(=O)(=O)c4ccc(NC(=O)C5(c6ccccc6)CC5)cc4)cc3F)C(=O)O)cc2)c1=O` [Compound A30]: 43 nM.
The same measure for `Cc1cn(C)c(=O)n(-c2ccc(C[C@H](NC(=O)c3cc(F)c(NS(=O)(=O)c4ccc(NC(=O)C5(C#N)CC5)cc4)cc3F)C(=O)O)cn2)c1=O` [Compound A60]: 52 nM; for `Cc1cn(C)c(=O)n(-c2ccc(C[C@H](NC(=O)c3cc(F)c(NS(=O)(=O)c4ccc(NC(=O)C(C)(C)C)cc4)cc3F)C(=O)O)cc2)c1=O` [Compound A37]: 6.6 nM; for `Cn1c(=O)n(-c2ccc(C[C@H](NC(=O)c3cc(F)c(NS(=O)(=O)c4ccc(NC(=O)C5(O)CC5)cc4)cc3F)C(=O)O)cc2)c(=O)c2ccncc21` [Compound A23]: 32 nM.
For `Cn1c(C(F)(F)F)cc(=O)n(-c2ccc(C[C@H](NC(=O)c3cc(F)c(NS(=O)(=O)c4ccc(NC(=O)C(C)(C)C)cc4)cc3F)C(=O)O)cn2)c1=O` [Compound A66], the IC50 is 25 nM.
Regarding `Cn1c(=O)n(-c2ccc(C[C@H](NC(=O)c3cc(F)c(NS(=O)(=O)c4ccc(NC(=O)C5(c6ccccc6)CC5)cc4)cc3F)C(=O)O)cn2)c(=O)c2ccncc21` [Compound A29], the IC50 was 54 nM.
On to `COC1(C(=O)Nc2ccc(S(=O)(=O)Nc3cc(F)c(C(=O)N[C@@H](Cc4ccc(-n5c(=O)c(C)c(C)n(C)c5=O)cc4)C(=O)O)cc3F)cc2)CC1` [Compound A17], for which the IC50 is 67 nM.
With `COc1cc2c(=O)n(-c3ccc(C[C@H](NC(=O)c4cc(F)c(NS(=O)(=O)c5ccc(NC(=O)C(C)(C)C)cc5)cc4F)C(=O)O)cc3)c(=O)n(C)c2cn1` [Compound A36] the figure was 18 nM; with `Cc1c(C)n(C)c(=O)n(-c2ccc(C[C@H](NC(=O)c3cc(F)c(NS(=O)(=O)c4ccc(NC(=O)C5(C(F)(F)F)CC5)cc4)cc3F)C(=O)O)cc2)c1=O` [Compound A20], 17 nM.
Consider `Cc1c(C)n(C)c(=O)n(-c2ccc(C[C@H](NC(=O)c3cc(F)c(NS(=O)(=O)c4ccc(NC(=O)C5(O)CC5)cc4)cc3F)C(=O)O)cc2)c1=O` [Compound A22], for which the half-maximal inhibitory concentration (IC50) came to 25 nM.
As to `Cc1c(C)n(C)c(=O)n(-c2ccc(C[C@H](NC(=O)c3cc(F)c(NS(=O)(=O)c4ccc(NC(=O)C(C)(C)CO)cc4)cc3F)C(=O)O)cc2)c1=O` [Compound A21], the IC50 was found to be 7.2 nM.
